In ChEMBL document CHEMBL5523766 (J Med Chem, 2024):

Key:
[1] = target: Tyrosine-protein kinase ABL1 (Homo sapiens, UniProt P00519); experiment: Inhibition of human ABL
[2] = target: NUAK family SNF1-like kinase 1 (Homo sapiens, UniProt O60285); experiment: Inhibition of human ARK5
[3] = target: AMPK alpha2/beta1/gamma1 (Homo sapiens, UniProt P54619+P54646+Q9Y478); experiment: Inhibition of human AMPK alpha2/beta1/gamma1; format: protein-complex assay
[4] = Cmax in ICR mouse at 50 mg/kg,po measured upto 24 hrs by LC-MS/MS analysis; format: ADME, organism-based; conditions: in vivo
[5] = target: T1, Cyclin-dependent kinase 2 (Homo sapiens, UniProt P24941); experiment: Inhibition of human CDK2
[6] = target: Serine/threonine-protein kinase BRSK2 (Homo sapiens, UniProt Q8IWQ3); experiment: Inhibition of human BRSK2
[7] = target: Interleukin-1 receptor-associated kinase 4 (Homo sapiens) (UniProt Q9NWZ3); experiment: Inhibition of human IRAK4 at 10 uM relative to control
[8] = target: T2, Tyrosine-protein kinase JAK1 (Homo sapiens, UniProt P23458); experiment: Inhibition of human JAK1 at 10 uM relative to control
T2 sequence (P23458 whole entry): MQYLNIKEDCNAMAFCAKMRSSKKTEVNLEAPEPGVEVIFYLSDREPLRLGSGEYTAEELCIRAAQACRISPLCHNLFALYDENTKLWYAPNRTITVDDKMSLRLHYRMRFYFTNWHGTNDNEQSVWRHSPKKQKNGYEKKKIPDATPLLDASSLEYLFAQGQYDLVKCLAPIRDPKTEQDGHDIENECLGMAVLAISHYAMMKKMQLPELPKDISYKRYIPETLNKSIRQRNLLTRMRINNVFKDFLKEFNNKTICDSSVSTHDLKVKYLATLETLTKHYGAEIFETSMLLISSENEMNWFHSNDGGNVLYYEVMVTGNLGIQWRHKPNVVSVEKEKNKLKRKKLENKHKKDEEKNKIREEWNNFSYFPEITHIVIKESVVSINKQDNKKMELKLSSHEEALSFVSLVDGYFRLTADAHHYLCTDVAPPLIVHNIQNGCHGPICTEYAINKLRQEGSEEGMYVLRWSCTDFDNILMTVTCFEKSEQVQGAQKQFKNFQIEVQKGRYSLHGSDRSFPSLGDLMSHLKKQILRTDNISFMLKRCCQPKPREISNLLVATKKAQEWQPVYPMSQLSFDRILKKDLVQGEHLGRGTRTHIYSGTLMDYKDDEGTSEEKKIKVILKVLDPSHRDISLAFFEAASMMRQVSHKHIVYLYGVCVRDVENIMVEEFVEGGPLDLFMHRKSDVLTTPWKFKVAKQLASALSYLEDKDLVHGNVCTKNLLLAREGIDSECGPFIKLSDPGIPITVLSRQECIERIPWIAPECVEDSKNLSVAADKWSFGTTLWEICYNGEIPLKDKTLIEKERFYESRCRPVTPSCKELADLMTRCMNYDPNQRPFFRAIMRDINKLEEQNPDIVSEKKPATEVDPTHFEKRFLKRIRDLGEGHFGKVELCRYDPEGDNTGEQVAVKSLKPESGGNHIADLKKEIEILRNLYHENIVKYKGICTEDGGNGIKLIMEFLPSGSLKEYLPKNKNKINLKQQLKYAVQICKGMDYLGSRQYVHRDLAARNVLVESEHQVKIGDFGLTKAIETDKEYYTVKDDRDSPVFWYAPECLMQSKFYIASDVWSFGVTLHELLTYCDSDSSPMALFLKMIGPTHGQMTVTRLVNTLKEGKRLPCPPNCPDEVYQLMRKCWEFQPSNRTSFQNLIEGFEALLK

[9] = test system: CAPAN-1; experiment: Antiproliferative activity against human CAPAN-1 cells assessed as inhibition of cell growth incubated for 72 hrs by MTS assay; format: functional, cell-based; conditions: CAPAN-1, 72 h
[10] = target: T3, Tyrosine-protein kinase BTK (Homo sapiens, UniProt Q06187); experiment: Inhibition of human BTK at 10 uM relative to control
T3 sequence (Q06187 whole entry): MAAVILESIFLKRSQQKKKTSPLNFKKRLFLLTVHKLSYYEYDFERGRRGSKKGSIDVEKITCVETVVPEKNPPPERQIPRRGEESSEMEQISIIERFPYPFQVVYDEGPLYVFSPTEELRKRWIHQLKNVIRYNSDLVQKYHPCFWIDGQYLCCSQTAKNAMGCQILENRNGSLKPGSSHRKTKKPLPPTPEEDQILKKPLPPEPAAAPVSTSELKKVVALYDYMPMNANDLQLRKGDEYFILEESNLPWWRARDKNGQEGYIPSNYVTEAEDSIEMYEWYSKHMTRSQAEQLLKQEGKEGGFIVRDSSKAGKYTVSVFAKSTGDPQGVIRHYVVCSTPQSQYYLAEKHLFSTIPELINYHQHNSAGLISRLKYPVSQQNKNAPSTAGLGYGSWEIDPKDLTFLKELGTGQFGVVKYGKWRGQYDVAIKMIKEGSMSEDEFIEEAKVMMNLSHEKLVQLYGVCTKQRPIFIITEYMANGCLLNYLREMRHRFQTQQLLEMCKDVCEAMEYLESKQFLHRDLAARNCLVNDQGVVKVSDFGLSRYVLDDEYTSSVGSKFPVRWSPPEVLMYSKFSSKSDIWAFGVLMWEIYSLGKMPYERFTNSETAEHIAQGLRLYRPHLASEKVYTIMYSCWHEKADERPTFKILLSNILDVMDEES

[11] = target: Tyrosine-protein kinase Mer (Homo sapiens, UniProt Q12866); experiment: Inhibition of human MER
[12] = target: CYP3A4 (Homo sapiens, UniProt P08684); experiment: Time dependent inhibition of CYP3A4 (unknown origin) at 10 uM relative to control; format: ADME; conditions: read-out: TDI
[13] = target: T4, Serine/threonine-protein kinase mTOR (Homo sapiens, UniProt P42345); experiment: Inhibition of human mTOR
[14] = target: T5, Tyrosine-protein kinase Lyn (Homo sapiens, UniProt P07948); experiment: Inhibition of human LYN at 10 uM relative to control
Target sequence in this assay (P07948 2-512 limits assumed): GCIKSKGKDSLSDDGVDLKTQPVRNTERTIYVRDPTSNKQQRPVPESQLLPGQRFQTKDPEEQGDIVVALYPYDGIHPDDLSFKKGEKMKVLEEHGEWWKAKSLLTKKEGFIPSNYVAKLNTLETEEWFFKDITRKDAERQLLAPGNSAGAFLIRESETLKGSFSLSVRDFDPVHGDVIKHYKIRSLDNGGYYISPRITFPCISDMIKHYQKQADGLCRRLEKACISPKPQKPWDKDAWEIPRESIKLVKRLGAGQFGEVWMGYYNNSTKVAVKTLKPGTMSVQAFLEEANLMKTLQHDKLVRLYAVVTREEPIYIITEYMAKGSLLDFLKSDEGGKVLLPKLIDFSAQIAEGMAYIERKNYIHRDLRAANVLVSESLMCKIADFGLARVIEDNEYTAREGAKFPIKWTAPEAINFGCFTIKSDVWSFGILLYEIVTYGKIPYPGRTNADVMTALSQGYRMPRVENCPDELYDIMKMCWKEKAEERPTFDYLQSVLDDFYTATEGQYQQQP

[15] = Apparent permeability across basolateral to apical side in human Caco-2 cells; format: ADME, cell-based
[16] = AUCinfinity in ICR mouse at 50 mg/kg,po measured upto 24 hrs by LC-MS/MS analysis; format: ADME, organism-based; conditions: in vivo
[17] = target: Serine/threonine-protein kinase 17B (Homo sapiens, UniProt O94768); experiment: Inhibition of human DRAK2
Chain of Serine/threonine-protein kinase 17B (O94768 whole entry): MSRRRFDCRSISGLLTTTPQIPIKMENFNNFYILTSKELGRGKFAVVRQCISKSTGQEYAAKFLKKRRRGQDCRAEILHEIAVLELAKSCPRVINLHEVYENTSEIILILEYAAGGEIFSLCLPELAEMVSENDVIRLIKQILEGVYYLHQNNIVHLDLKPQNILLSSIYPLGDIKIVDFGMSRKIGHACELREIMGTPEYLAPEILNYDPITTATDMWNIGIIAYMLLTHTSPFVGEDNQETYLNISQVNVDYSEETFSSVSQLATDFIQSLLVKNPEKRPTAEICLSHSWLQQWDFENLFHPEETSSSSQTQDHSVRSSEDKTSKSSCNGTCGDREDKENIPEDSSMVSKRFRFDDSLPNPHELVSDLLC

[18] = target: T4, Serine/threonine-protein kinase mTOR; experiment: Inhibition of human mTOR at 10 uM relative to control
[19] = target: CYP2C9 (Homo sapiens, UniProt P11712); experiment: Time dependent inhibition of CYP2C9 (unknown origin) at 10 uM relative to control; format: ADME; conditions: read-out: TDI
[20] = Efflux ratio of apparent permeability across […] side in dog MDCK-MDR1 cells; format: ADME, cell-based, Canis lupus familiaris
[21] = Half life in ICR mouse at 50 mg/kg,po measured upto 24 hrs by LC-MS/MS analysis; format: ADME, organism-based; conditions: in vivo
[22] = target: CYP1A2 (Homo sapiens, UniProt P05177); experiment: Time dependent inhibition of CYP1A2 (unknown origin) at 10 uM relative to control; format: ADME; conditions: read-out: TDI
[23] = target: NUAK family SNF1-like kinase 1 (Homo sapiens) (UniProt O60285); experiment: Inhibition of human ARK5 at 10 uM relative to control
[24] = Apparent permeability across apical to basolateral side in dog MDCK-MDR1 cells; format: ADME, cell-based, Canis lupus familiaris
[25] = target: Receptor-type tyrosine-protein kinase FLT3 (Homo sapiens, UniProt P36888); experiment: Inhibition of human FLT3
Chain of Receptor-type tyrosine-protein kinase FLT3 (P36888 whole entry): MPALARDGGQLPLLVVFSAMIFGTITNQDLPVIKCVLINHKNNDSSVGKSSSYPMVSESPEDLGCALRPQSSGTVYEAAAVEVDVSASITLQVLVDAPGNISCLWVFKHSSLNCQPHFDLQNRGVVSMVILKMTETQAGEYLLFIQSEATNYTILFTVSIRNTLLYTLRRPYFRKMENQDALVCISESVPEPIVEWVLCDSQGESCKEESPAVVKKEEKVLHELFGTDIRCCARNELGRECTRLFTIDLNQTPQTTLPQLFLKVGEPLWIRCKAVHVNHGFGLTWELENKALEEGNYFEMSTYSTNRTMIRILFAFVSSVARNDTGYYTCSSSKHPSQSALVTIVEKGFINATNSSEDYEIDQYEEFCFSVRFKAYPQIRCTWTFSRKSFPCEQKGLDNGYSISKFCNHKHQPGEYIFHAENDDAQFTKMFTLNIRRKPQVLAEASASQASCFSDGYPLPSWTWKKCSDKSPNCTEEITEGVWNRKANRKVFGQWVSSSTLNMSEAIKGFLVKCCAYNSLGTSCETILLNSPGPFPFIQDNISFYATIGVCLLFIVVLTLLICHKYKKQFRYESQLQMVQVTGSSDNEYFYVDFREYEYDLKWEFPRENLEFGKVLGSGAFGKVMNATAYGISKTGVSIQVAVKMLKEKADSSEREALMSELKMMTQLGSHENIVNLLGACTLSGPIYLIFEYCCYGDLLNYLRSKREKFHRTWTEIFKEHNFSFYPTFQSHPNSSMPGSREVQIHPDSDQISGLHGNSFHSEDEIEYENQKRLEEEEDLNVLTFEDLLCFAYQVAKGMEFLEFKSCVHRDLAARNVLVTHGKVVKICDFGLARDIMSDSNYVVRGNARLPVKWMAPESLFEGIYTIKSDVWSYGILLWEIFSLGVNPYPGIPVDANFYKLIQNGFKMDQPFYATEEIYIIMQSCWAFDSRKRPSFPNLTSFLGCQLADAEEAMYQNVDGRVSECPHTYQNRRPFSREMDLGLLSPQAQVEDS

[26] = Apparent permeability across basolateral to apical side in dog MDCK-MDR1 cells; format: ADME, cell-based, Canis lupus familiaris
[27] = target: T5, Tyrosine-protein kinase Lyn; experiment: Inhibition of human LYN
Target sequence in this assay (P07948 whole entry): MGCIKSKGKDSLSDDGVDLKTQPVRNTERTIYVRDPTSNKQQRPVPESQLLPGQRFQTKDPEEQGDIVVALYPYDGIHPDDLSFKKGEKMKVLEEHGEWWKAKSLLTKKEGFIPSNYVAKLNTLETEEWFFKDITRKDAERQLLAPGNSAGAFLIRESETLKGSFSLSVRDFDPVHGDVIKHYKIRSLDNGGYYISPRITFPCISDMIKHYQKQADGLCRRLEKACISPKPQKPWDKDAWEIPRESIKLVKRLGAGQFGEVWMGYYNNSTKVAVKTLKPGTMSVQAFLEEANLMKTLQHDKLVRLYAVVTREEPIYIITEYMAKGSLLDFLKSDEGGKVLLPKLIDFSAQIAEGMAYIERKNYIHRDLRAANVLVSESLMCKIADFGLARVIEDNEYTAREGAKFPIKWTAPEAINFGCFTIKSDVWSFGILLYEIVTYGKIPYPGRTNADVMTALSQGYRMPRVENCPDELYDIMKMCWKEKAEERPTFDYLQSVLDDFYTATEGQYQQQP

[28] = test system: NCI-H446; experiment: Antiproliferative activity against human NCI-H446 cells assessed as inhibition of cell growth incubated for 72 hrs by MTS assay; format: functional, cell-based; conditions: NCI-H446, 72 h
[29] = target: Serine/threonine-protein kinase 17B (Homo sapiens) (UniProt O94768); experiment: Inhibition of human DRAK2 at 10 uM relative to control
Chain of Serine/threonine-protein kinase 17B (Homo sapiens) (O94768 whole entry): as the sequence (O94768 whole entry) above

[30] = target: Receptor-type tyrosine-protein kinase FLT3 (Homo sapiens) (UniProt P36888); experiment: Inhibition of human FLT3 at 10 uM relative to control
Chain of Receptor-type tyrosine-protein kinase FLT3 (Homo sapiens) (P36888 whole entry): as the sequence (P36888 whole entry) above

[31] = test system: SUD4; experiment: Antiproliferative activity against human SU-DHL-4 cells assessed as inhibition of cell growth incubated for 72 hrs by MTS assay; format: functional, cell-based; conditions: SU-DHL-4, 72 h
[32] = target: T6, Tyrosine-protein kinase Lck (Homo sapiens, UniProt P06239); experiment: Inhibition of human LCK at 10 uM relative to control
[33] = Lipophilicity, logD of compound at pH 7.4; format: physicochemical; conditions: buffer
[34] = test system: HT-29; experiment: Antiproliferative activity against human HT-29 cells assessed as inhibition of cell growth incubated for 72 hrs by MTS assay; format: functional, cell-based; conditions: HT-29, 72 h
[35] = Apparent permeability across apical to basolateral side in human Caco-2 cells; format: ADME, cell-based
[36] = target: T3, Tyrosine-protein kinase BTK; experiment: Inhibition of human BTK
[37] = test system: LoVo; experiment: Antiproliferative activity against human LoVo cells assessed as inhibition of cell growth incubated for 72 hrs by MTS assay; format: functional, cell-based
[38] = Plasma protein binding in mouse; format: ADME, cell-free; conditions: read-out: PPB (converted)
[39] = target: T7, Aurora kinase B (Homo sapiens, UniProt Q96GD4); experiment: Inhibition of human Aurora B
T7 sequence (Q96GD4 whole entry): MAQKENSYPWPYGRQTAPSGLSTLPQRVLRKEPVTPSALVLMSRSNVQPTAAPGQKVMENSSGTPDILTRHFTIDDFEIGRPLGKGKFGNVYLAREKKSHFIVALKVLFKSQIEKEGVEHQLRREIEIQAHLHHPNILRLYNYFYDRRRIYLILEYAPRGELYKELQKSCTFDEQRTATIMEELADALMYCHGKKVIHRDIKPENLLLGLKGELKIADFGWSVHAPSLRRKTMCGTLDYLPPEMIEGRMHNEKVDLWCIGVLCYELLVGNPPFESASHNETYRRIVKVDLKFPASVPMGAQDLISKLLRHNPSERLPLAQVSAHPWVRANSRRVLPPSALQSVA

[40] = target: T6, Tyrosine-protein kinase Lck; experiment: Inhibition of human LCK
[41] = target: Interleukin-1 receptor-associated kinase 4 (Homo sapiens, UniProt Q9NWZ3); experiment: Inhibition of human IRAK4
[42] = target: CYP2C19 (Homo sapiens, UniProt P33261); experiment: Time dependent inhibition of CYP2C19 (unknown origin) at 10 uM relative to control; format: ADME; conditions: read-out: TDI
[43] = test system: OCI-Ly10; experiment: Antiproliferative activity against human OCI-Ly10 cells assessed as inhibition of cell growth incubated for 72 hrs by MTS assay; format: functional, cell-based; conditions: OCI-Ly10, 72 h
[44] = Efflux ratio of apparent permeability across […] side in human Caco-2 cells; format: ADME, cell-based
[45] = test system: A2780; experiment: Antiproliferative activity against human A2780 cells assessed as inhibition of cell growth incubated for 72 hrs by MTS assay; format: functional, cell-based; conditions: A2780, 72 h
[46] = test system: PC-3; experiment: Antiproliferative activity against human PC-3 cells assessed as inhibition of cell growth incubated for 72 hrs by MTS assay; format: functional, cell-based; conditions: PC-3, 72 h
[47] = target: AMPK alpha2/beta1/gamma1 (Homo sapiens) (UniProt P54646+P54619+Q9Y478); experiment: Inhibition of human AMPK alpha2/beta1/gamma1 at 10 uM relative to control; format: protein-complex assay
[48] = target: T1, Cyclin-dependent kinase 2; experiment: Inhibition of human CDK2 at 10 uM relative to control
[49] = target: Tyrosine-protein kinase Mer (Homo sapiens) (UniProt Q12866); experiment: Inhibition of human MER at 10 uM relative to control
[50] = test system: Granta-519; experiment: Antiproliferative activity against human Granta-519 cells assessed as inhibition of cell growth incubated for 72 hrs by MTS assay; format: functional, cell-based; conditions: Granta-519, 72 h
[51] = test system: DLD-1; experiment: Antiproliferative activity against human DLD-1 cells assessed as inhibition of cell growth incubated for 72 hrs by MTS assay; format: functional, cell-based; conditions: DLD-1, 72 h
[52] = target: Serine/threonine-protein kinase BRSK2 (Homo sapiens) (UniProt Q8IWQ3); experiment: Inhibition of human BRSK2 at 10 uM relative to control
[53] = test system: HCT-116; experiment: Antiproliferative activity against human HCT-116 cells assessed as inhibition of cell growth incubated for 72 hrs by MTS assay; format: functional, cell-based; conditions: HCT-116, 72 h
[54] = Tmax in ICR mouse at 50 mg/kg,po measured upto 24 hrs by LC-MS/MS analysis; format: ADME, organism-based; conditions: in vivo
[55] = AUClast in ICR mouse at 50 mg/kg,po measured upto 24 hrs by LC-MS/MS analysis; format: ADME, organism-based; conditions: in vivo
[56] = target: CYP2D6 (Homo sapiens, UniProt P10635); experiment: Time dependent inhibition of CYP2D6 (unknown origin) at 10 uM relative to control; format: ADME; conditions: read-out: TDI
[57] = target: T7, Aurora kinase B; experiment: Inhibition of human Aurora B at 10 uM relative to control
[58] = target: T2, Tyrosine-protein kinase JAK1; experiment: Inhibition of human JAK1
[59] = target: ATR/ATRIP (Homo sapiens, UniProt Q13535); experiment: Inhibition of ATR/ATRIP (unknown origin) using 5-FAM-AK-17 as substrate preincubated with compound for 10 mins followed by ATP addition and measured after 240 mins by mobility shift assay; format: protein-complex assay

C[C@@H]1COCCN1c1nc(-c2cncc3[nH]ccc23)nc2c1ccn2S(C)(=O)=O
IC50 [1]: > 10000 nM
IC50 [2]: > 10000 nM
IC50 [3]: > 10000 nM
Cmax [4]: 18900 ng/mL
IC50 [5]: > 10000 nM
IC50 [6]: > 10000 nM
inhibition [7]: 46.1%
inhibition [8]: 29.5%
IC50 [9]: 820 nM
inhibition [10]: 41.8%
IC50 [11]: > 10000 nM
inhibition at 10 µM [12]: 18.6%
IC50 [13]: 22.4 nM
inhibition [14]: 13.3%
Papp B→A [15]: 30.2 ×10⁻⁶ cm/s
AUC(0-inf) [16]: 46700 ng·h/mL
IC50 [17]: > 10000 nM
inhibition [18]: 102%
inhibition at 10 µM [19]: 0%
efflux ratio [20]: 4.81
half-life [21]: 2.01 h
inhibition at 10 µM [22]: 28.6%
inhibition [23]: 20.5%
Papp A→B [24]: 6.02 ×10⁻⁶ cm/s
IC50 [25]: > 10000 nM
Papp B→A [26]: 29 ×10⁻⁶ cm/s
IC50 [27]: > 10000 nM
IC50 [28]: 230 nM
inhibition [29]: 24.6%
inhibition [30]: 62.8%
IC50 [31]: 300 nM
inhibition [32]: 79.2%
logD [33]: 3.11
IC50 [34]: 350 nM
Papp A→B [35]: 21.5 ×10⁻⁶ cm/s
IC50 [36]: > 10000 nM
IC50 [37]: 150 nM
fraction unbound [38]: 0.006
IC50 [39]: > 10000 nM
IC50 [40]: 4950 nM
IC50 [41]: > 10000 nM
inhibition at 10 µM [42]: 0%
IC50 [43]: 100 nM
efflux ratio [44]: 1.41
IC50 [45]: 90 nM
IC50 [46]: 780 nM
inhibition [47]: 1.11%
inhibition [48]: 5.98%
inhibition [49]: 35.7%
IC50 [50]: 100 nM
IC50 [51]: 460 nM
inhibition [52]: 21.6%
IC50 [53]: 150 nM
Tmax [54]: 0.5 h
AUC(0-t) at 24 h [55]: 46700 ng·h/mL
inhibition at 10 µM [56]: 3.71%
inhibition [57]: 22.5%
IC50 [58]: > 10000 nM
IC50 [59]: 1.6 nM
